Laboratory results: US20250367211A1, “RESCUE TREATMENT OF POST OPERATIVE NAUSEA AND VOMITING” (ACACIA PHARMA LIMITED, priority 2017, published 2025)

How the values were obtained:
[1] = tested on: adult surgical patients at moderate-to-high risk of suffering PONV; assay: Two Phase III placebo-controlled trials, PONV prophylaxis; assay type: in vivo, human; conditions: 5 mg, 626 evaluable patients, p<0.01 vs placebo (59%)
[2] = tested on: adult surgical patients at moderate-to-high risk of suffering PONV; assay: Phase II dose-ranging trial, IV amisulpride for PONV prophylaxis; assay type: in vivo, human
Procedure: In a multi-centre, double-blind, randomised, dose-ranging Phase II trial (conducted by the applicant), amisulpride was given intravenously to adult surgical patients at moderate-to-high risk of suffering PONV (prophylaxis), at doses of 1 mg, 5 mg and 20 mg, with a fourth group receiving placebo.

[3] = tested on: adult patients with established PONV who have had prior PONV prophylaxis; assay: Study 1: rescue treatment of established PONV after failed prior prophylaxis; assay type: in vivo, human; conditions: for complete response (CR) rate: no emesis 30 min to 24 h and no rescue medication in 24 h, placebo 28.5%
Procedure: A randomised, double-blind, placebo-controlled study of amisulpride for IV injection as treatment of established postoperative nausea and vomiting, in patients who have had prior prophylaxis was conducted. The primary aim of the study was to compare the efficacy of 5 mg and 10 mg amisulpride to placebo as treatment of established PONV, in patients who have had prior PONV prophylaxis.
The study was performed in adult patients (≥18 years) with an expected duration of inhalational anaesthesia of at least 1 hour, who experienced PONV in the 24-hour period after surgery, having had prior PONV prophylaxis.
Amisulpride at a dose of 5 mg or 10 mg or matching placebo was given once by slow IV administration, over about 2 minutes.
The primary efficacy variable was the dichotomous variable: success or failure of initial PONV treatment, where success is defined as no emetic episodes (vomiting or retching) from 30 minutes to 24 hours after administration of study medication and no administration of antiemetic rescue medication at any time in the 24-hour period after study medication (a “complete response”).
The secondary efficacy variables included: • The occurrence and severity of nausea (a VRS score >0) and of significant nausea (a VRS score ≥4), including measures of the time course of nausea, such as area under the curve for nausea scores for time periods up to 24 hours. • The occurrence of vomiting (to include retching) after administration of study medication. • Use of anti-emetic rescue medication. • Time to failure of initial PONV treatment. • Sub-analyses of success and failure according to various parameters, including by time of onset of PONV relative to end of surgery and by sex.

[4] = tested on: patients with PONV who had not received prior prophylaxis; assay: Clinical trial, treatment of PONV in patients without prior prophylaxis; assay type: in vivo, human; conditions: no prior prophylaxis
Procedure: In another clinical trial conducted by the applicant, amisulpride at doses of 5 mg and 10 mg were compared with placebo for the treatment of PONV, in patients who had not received prior prophylaxis.

[5] = tested on: adult surgical patients at high risk of suffering PONV; assay: Phase III trial, PONV prophylaxis in combination with a standard anti-emetic; assay type: in vivo, human; conditions: 5 mg in combination with a standard anti-emetic, 1147 evaluable patients, p<0.001 vs placebo plus standard anti-emetic (53%)
[6] = compared with the (R+)-enantiomer; cited from earlier work

Structure (SMILES)	incidence of PONV [1]	incidence of PONV ([2]; 1 mg intravenously, p<0.05 vs placebo (69%))	incidence of PONV ([2]; 5 mg intravenously, p<0.01 vs placebo (69%))	incidence of PONV compared to placebo ([2]; 20 mg intravenously, placebo 69%, not stated as significant)	complete response (CR) rate ([3]; 5 mg once by slow IV, 237 patients, p = 0.109)	complete response (CR) rate ([3]; 10 mg once by slow IV, 230 patients, p = 0.003)	efficacy as PONV rescue treatment, 10 mg versus 5 mg dose ([3]; patients with prior unsuccessful PONV prophylaxis)	treatment of PONV versus placebo ([4]; 5 mg)	treatment of PONV versus placebo ([4]; 10 mg)	clinical efficacy, 5 mg versus 10 mg dose ([4]; treatment of PONV)	incidence of PONV [5]	share of therapeutic activity of amisulpride [6]
CCN1CCCC1CNC(=O)c1cc(S(=O)(=O)CC)c(N)cc1OC (racemic) [amisulpride]	48%	48%	40%	lower	33.8% (p = 0.109)	41.7%, (p = 0.003)	more effective	significantly better than placebo	significantly better than placebo	no difference	42%	–
CCN1CCCC1CNC(=O)c1cc(S(=O)(=O)CC)c(N)cc1OC (stereo not drawn) [(S−)-amisulpride]	–	–	–	–	–	–	–	–	–	–	–	almost all of the therapeutic activity
